Results on 13 compounds are retold here after patent publication US10815276B2, “Cell penetrating peptides and methods of making and using thereof” (Entrada Therapeutics, Inc., priority 2014, dated 2020).

Starred links: 1 amine or outer side, 2 acyl side, 3 side chain; linkers in the order of their positions; H or OH if unused. Positions of bridges follow the written chain, without caps; N, C: chain ends. Non-standard residues stand in square brackets, D forms with d. Residues, ends and D or L forms follow the SMILES beside them. Trimesoyl = O=C(c1cc(C(=O)[*:2])cc(C(=O)[*:3])c1)[*:1]; Phe(4-Br) = N[C@@H](Cc1ccc(Br)cc1)C(=O)O; Phe(4-F) = N[C@@H](Cc1ccc(F)cc1)C(=O)O; 2Nal = N[C@@H](Cc1ccc2ccccc2c1)C(=O)O; Pip = O=C(O)[C@@H]1CCCCN1; Dap = NC[C@H](N)C(=O)O; βAla = NCCC(=O)O; Sar = CNCC(=O)O

The target of the assay is T1, Pin1 (Homo sapiens, UniProt Q13526, S16A/Y23A).
T1 construct: The full-length human S16A/Y23A mutant Pin1 was expressed and purified from E. coli; made in house
The assay can be described thus: Pin1 binding by FA (FITC-labeled peptides). The conditions noted are these: for Kd: FITC-labeled peptide, FA, read-out: KD.

On to `C[C@H]1NC(=O)[C@H](Cc2ccc(O)cc2)NC(=O)[C@H](CCCNC(=N)N)NC(=O)[C@H](Cc2ccc3ccccc3c2)NC(=O)[C@@H]2CCCCN2C(=O)[C@@H](CC(=O)O)NC(=O)CN(C)C(=O)[C@@H]2CCCN2C(=O)c2cc3cc(c2)C(=O)NC[C@H](NC1=O)C(=O)N[C@@H](Cc1ccccc1)C(=O)N[C@@H](Cc1ccc2ccccc2c1)C(=O)N[C@@H](CCCNC(=N)N)C(=O)N[C@@H](CCCNC(=N)N)C(=O)N[C@@H](CCCNC(=N)N)C(=O)N[C@@H](CCCNC(=N)N)C(=O)N[C@H](C(=O)N[C@@H](CCCCN)C(N)=O)CNC3=O` [Peptide 17, bicyclo[Tm-(Pro-Sar-D-Asp-Pip-Nal-Arg-Tyr-D-Ala)-Dap-(Phe-Nal-Arg-Arg-Arg-Arg-Dap)]-Lys] (P[Sar][dD][Pip][2Nal]RY[dA][Dap]F[2Nal]RRRR[Dap]K-NH2; linker N-9-16 via Trimesoyl; C-terminus assumed), for which the Kd (as a rule, the concentration at which binding is half-saturated) turned out to be 2.17 ± 0.55 µM.

On to `C[C@@H]1NC(=O)[C@H](CCCNC(=N)N)NC(=O)[C@H](Cc2ccc3ccccc3c2)NC(=O)[C@@H]2CCCCN2C(=O)[C@@H]([C@H](C)O)NC(=O)[C@H](Cc2ccc(F)cc2)NC(=O)[C@@H](Cc2ccccc2)NC(=O)c2cc3cc(c2)C(=O)NC[C@H](NC(=O)[C@@H](Cc2ccccc2)NC1=O)C(=O)N[C@@H](CCCNC(=N)N)C(=O)N[C@@H](Cc1ccc2ccccc2c1)C(=O)N[C@@H](CCCNC(=N)N)C(=O)N[C@@H](Cc1ccccc1)C(=O)N[C@@H](CCCNC(=N)N)C(=O)N[C@@H](CCCNC(=N)N)C(=O)N[C@H](C(=O)N[C@@H](CCCCN)C(N)=O)CNC3=O` [Peptide 44, bicyclo[Tm-(D-Phe-Fpa-D-Thr-Pip-Nal-Arg-Ala-D-Phe)-Dap-(Arg-Nal-Arg-Phe-Arg-Arg-Dap)]-Lys] ([dF][Phe(4-F)][dT][Pip][2Nal]RA[dF][Dap]R[2Nal]RFRR[Dap]K-NH2; linker N-9-16 via Trimesoyl; C-terminus assumed), for which the dissociation constant (Kd) was determined as 0.45 ± 0.05 µM.

For the compound “bicyclo[Tm-(D-4-Phe-Fpa-D-homoGlu-Pip-Nal-Arg-Ala-D-Phe)-Dap-(Phe-Nal-Arg-Arg-Arg-Arg-Dap)]-Lys [Peptide 41]”, the Kd was 0.87 ± 0.08 µM.

In the case of `C[C@@H]1NC(=O)[C@H](CCCNC(=N)N)NC(=O)[C@H](Cc2ccc3ccccc3c2)NC(=O)[C@@H]2CCCCN2C(=O)[C@@H]([C@H](C)O)NC(=O)[C@H](Cc2ccccc2)NC(=O)[C@@H](Cc2ccccc2)NC(=O)c2cc3cc(c2)C(=O)NC[C@H](NC(=O)[C@@H](Cc2ccccc2)NC1=O)C(=O)N[C@@H](Cc1ccccc1)C(=O)N[C@@H](Cc1ccc2ccccc2c1)C(=O)N[C@@H](CCCNC(=N)N)C(=O)N[C@@H](CCCNC(=N)N)C(=O)N[C@@H](CCCNC(=N)N)C(=O)N[C@@H](CCCNC(=N)N)C(=O)N[C@H](C(=O)N[C@@H](CCCCN)C(N)=O)CNC3=O` [Peptide 28, bicyclo[Tm-(D-Phe-Phe-D-Thr-Pip-Nal-Arg-Ala-D-Phe)-Dap-(Phe-Nal-Arg-Arg-Arg-Arg-Dap)]-Lys] ([dF]F[dT][Pip][2Nal]RA[dF][Dap]F[2Nal]RRRR[Dap]K-NH2; linker N-9-16 via Trimesoyl; C-terminus assumed), the Kd worked out at 1.26 ± 0.28 µM.

As for `CN1CC(=O)N[C@H](CC(=O)O)C(=O)N2CCCC[C@H]2C(=O)N[C@@H](Cc2ccc3ccccc3c2)C(=O)N[C@@H](CCCNC(=N)N)C(=O)N[C@@H](CCCNC(=N)N)C(=O)N[C@H](CC(=O)O)C(=O)N[C@H]2CNC(=O)c3cc(cc(c3)C(=O)N3CCC[C@H]3C1=O)C(=O)NC[C@@H](C(=O)N[C@@H](CCCCN)C(N)=O)NC(=O)[C@H](CCCNC(=N)N)NC(=O)[C@H](CCCNC(=N)N)NC(=O)[C@H](CCCNC(=N)N)NC(=O)[C@H](CCCNC(=N)N)NC(=O)[C@H](Cc1ccc3ccccc3c1)NC(=O)[C@H](Cc1ccccc1)NC2=O` [Peptide 25, bicyclo[Tm-(Pro-Sar-D-Asp-Pip-Nal-Arg-Arg-D-Asp)-Dap-(Phe-Nal-Arg-Arg-Arg-Arg-Dap)]-Lys] (P[Sar][dD][Pip][2Nal]RR[dD][Dap]F[2Nal]RRRR[Dap]K-NH2; linker N-9-16 via Trimesoyl; C-terminus assumed), the Kd turned out to be 4.6 ± 1.42 µM.

For `C[C@@H]1NC(=O)[C@H](CCCNC(=N)N)NC(=O)[C@H](Cc2ccc3ccccc3c2)NC(=O)[C@@H]2CCCCN2C(=O)[C@@H]([C@H](C)O)NC(=O)[C@H](Cc2ccc(F)cc2)NC(=O)[C@@H](Cc2ccccc2)NC(=O)c2cc3cc(c2)C(=O)NC[C@H](NC(=O)[C@@H](Cc2ccccc2)NC1=O)C(=O)N[C@@H](Cc1ccccc1)C(=O)N[C@@H](Cc1ccc2ccccc2c1)C(=O)N[C@@H](CCCNC(=N)N)C(=O)N[C@@H](CCCNC(=N)N)C(=O)N[C@@H](CCCNC(=N)N)C(=O)N[C@@H](CCCNC(=N)N)C(=O)N[C@H](C(=O)N[C@@H](CCCCN)C(N)=O)CNC3=O` [Peptide 27, bicyclo[Tm-(D-Phe-4-Fpa-D-Thr-Pip-Nal-Arg-Ala-D-Phe)-Dap-(Phe-Nal-Arg-Arg-Arg-Arg-Dap)]-Lys] ([dF][Phe(4-F)][dT][Pip][2Nal]RA[dF][Dap]F[2Nal]RRRR[Dap]K-NH2; linker N-9-16 via Trimesoyl; C-terminus assumed), the equilibrium dissociation constant (Kd) was found to be 0.27 µM. Moreover, under “peptide 22 vs 3, peptide 27 vs 4”, the “Improvement of Pin1 binding by D-Phe for D-Ala vs parent peptide” value is around 2 fold.

`C[C@H]1NC(=O)CCNC(=O)[C@H](CCCNC(=N)N)NC(=O)[C@H](Cc2ccc3ccccc3c2)NC(=O)[C@@H]2CCCCN2C(=O)[C@@H](CC(=O)O)NC(=O)CN(C)C(=O)[C@@H]2CCCN2C(=O)c2cc3cc(c2)C(=O)NC[C@H](NC1=O)C(=O)N[C@@H](Cc1ccccc1)C(=O)N[C@@H](Cc1ccc2ccccc2c1)C(=O)N[C@@H](CCCNC(=N)N)C(=O)N[C@@H](CCCNC(=N)N)C(=O)N[C@@H](CCCNC(=N)N)C(=O)N[C@@H](CCCNC(=N)N)C(=O)N[C@H](C(=O)N[C@@H](CCCCN)C(N)=O)CNC3=O` [Peptide 14, bicyclo[Tm-(Pro-Sar-D-Asp-Pip-Nal-Arg-β-Ala-D-Ala)-Dap-(Phe-Nal-Arg-Arg-Arg-Arg-Dap)]-Lys] (P[Sar][dD][Pip][2Nal]R[βAla][dA][Dap]F[2Nal]RRRR[Dap]K-NH2; linker N-9-16 via Trimesoyl; C-terminus assumed): the Kd was found to be 1.75 ± 0.18 µM.

With `C[C@@H]1NC(=O)[C@H](CCCNC(=N)N)NC(=O)[C@H](Cc2ccc3ccccc3c2)NC(=O)[C@@H]2CCCCN2C(=O)[C@@H](CC(=O)O)NC(=O)CN(C)C(=O)[C@@H]2CCCN2C(=O)c2cc3cc(c2)C(=O)NC[C@H](NC(=O)[C@@H](C)NC(=O)[C@@H](C)NC1=O)C(=O)N[C@@H](Cc1ccccc1)C(=O)N[C@@H](Cc1ccc2ccccc2c1)C(=O)N[C@@H](CCCNC(=N)N)C(=O)N[C@@H](CCCNC(=N)N)C(=O)N[C@@H](CCCNC(=N)N)C(=O)N[C@@H](CCCNC(=N)N)C(=O)N[C@H](C(=O)N[C@@H](CCCCN)C(N)=O)CNC3=O` [Peptide 16, bicyclo[Tm-(Pro-Sar-D-Asp-Pip-Nal-Arg-Ala-D-Ala-D-Ala)-Dap-(Phe-Nal-Arg-Arg-Arg-Arg-Dap)]-Lys] (P[Sar][dD][Pip][2Nal]RA[dA][dA][Dap]F[2Nal]RRRR[Dap]K-NH2; linker N-10-17 via Trimesoyl; C-terminus assumed), the dissociation constant Kd stood at 2.49 ± 0.57 µM.

In the case of `C[C@@H]1NC(=O)[C@H](CCCNC(=N)N)NC(=O)[C@H](Cc2ccc3ccccc3c2)NC(=O)[C@@H]2CCCCN2C(=O)[C@@H]([C@H](C)O)NC(=O)[C@H](Cc2ccc(Br)cc2)NC(=O)[C@@H](Cc2ccccc2)NC(=O)c2cc3cc(c2)C(=O)NC[C@H](NC(=O)[C@@H](Cc2ccccc2)NC1=O)C(=O)N[C@@H](Cc1ccccc1)C(=O)N[C@@H](Cc1ccc2ccccc2c1)C(=O)N[C@@H](CCCNC(=N)N)C(=O)N[C@@H](CCCNC(=N)N)C(=O)N[C@@H](CCCNC(=N)N)C(=O)N[C@@H](CCCNC(=N)N)C(=O)N[C@H](C(=O)N[C@@H](CCCCN)C(N)=O)CNC3=O` [Peptide 32, bicyclo[Tm-(D-Phe-4-BrPhe-D-Thr-Pip-Nal-Arg-Ala-D-Phe)-Dap-(Phe-Nal-Arg-Arg-Arg-Arg-Dap)]-Lys] ([dF][Phe(4-Br)][dT][Pip][2Nal]RA[dF][Dap]F[2Nal]RRRR[Dap]K-NH2; linker N-9-16 via Trimesoyl; C-terminus assumed), the Kd was determined as 1.78 ± 0.42 µM.

In the case of “bicyclo[Tm-(D-4-Phe-Fpa-D-Ile-Pip-Nal-Arg-Ala-D-Phe)-Dap-(Phe-Nal-Arg-Arg-Arg-Arg-Dap)]-Lys [Peptide 39]”, the Kd was found to be 0.46 ± 0.17 µM.

As for `C[C@@H]1NC(=O)[C@H](CCCNC(=N)N)NC(=O)[C@H](Cc2ccc3ccccc3c2)NC(=O)[C@@H]2CCCCN2C(=O)[C@@H]([C@H](C)O)NC(=O)[C@H](Cc2ccc(F)cc2)NC(=O)[C@@H](Cc2ccccc2)NC(=O)c2cc3cc(c2)C(=O)NC[C@H](NC(=O)[C@@H](Cc2ccccc2)NC1=O)C(=O)N[C@@H](CCCNC(=N)N)C(=O)N[C@@H](CCCNC(=N)N)C(=O)N[C@@H](CCCNC(=N)N)C(=O)N[C@@H](CCCNC(=N)N)C(=O)N[C@@H](Cc1ccc2ccccc2c1)C(=O)N[C@@H](Cc1ccccc1)C(=O)N[C@H](C(=O)N[C@@H](CCCCN)C(N)=O)CNC3=O` [Peptide 42, bicyclo[Tm-(D-Phe-Fpa-D-Thr-Pip-Nal-Arg-Ala-D-Phe)-Dap-(Arg-Arg-Arg-Arg-Nal-Phe-Dap)]-Lys] ([dF][Phe(4-F)][dT][Pip][2Nal]RA[dF][Dap]RRRR[2Nal]F[Dap]K-NH2; linker N-9-16 via Trimesoyl; C-terminus assumed), the Kd stood at 0.98 ± 0.18 µM.

Turning to `CC(C)[C@@H]1NC(=O)[C@H](CCCNC(=N)N)NC(=O)[C@H](Cc2ccc3ccccc3c2)NC(=O)[C@@H]2CCCCN2C(=O)[C@@H](CC(=O)O)NC(=O)CN(C)C(=O)[C@@H]2CCCN2C(=O)c2cc3cc(c2)C(=O)NC[C@H](NC(=O)[C@@H](C)NC1=O)C(=O)N[C@@H](Cc1ccccc1)C(=O)N[C@@H](Cc1ccc2ccccc2c1)C(=O)N[C@@H](CCCNC(=N)N)C(=O)N[C@@H](CCCNC(=N)N)C(=O)N[C@@H](CCCNC(=N)N)C(=O)N[C@@H](CCCNC(=N)N)C(=O)N[C@H](C(=O)N[C@@H](CCCCN)C(N)=O)CNC3=O` [Peptide 18, bicyclo[Tm-(Pro-Sar-D-Asp-Pip-Nal-Arg-Val-D-Ala)-Dap-(Phe-Nal-Arg-Arg-Arg-Arg-Dap)]-Lys] (P[Sar][dD][Pip][2Nal]RV[dA][Dap]F[2Nal]RRRR[Dap]K-NH2; linker N-9-16 via Trimesoyl; C-terminus assumed), the equilibrium dissociation constant (Kd) amounted to 1.75 ± 0.24 µM.

As to “bicyclo[Tm-(D-4-Phe-Fpa-D-Nle-Pip-Nal-Arg-Ala-D-Phe)-Dap-(Phe-Nal-Arg-Arg-Arg-Arg-Dap)]-Lys [Peptide 40]”, the Kd was determined as 0.71 ± 0.12 µM.
